Experimental findings from US5763431A, “Method for regulating neuropeptide hormone secretion” (priority 1996, dated 1998) are described below.

Assay [1] concerns Posterior Pituitary GABAA Receptor. As to the kind of experiment: GABA-gated Cl- single-channel currents in outside-out patches excised from posterior pituitary nerve terminals. In kind it is cell-based. How it is done:
(§1) Measurements were made in nerve terminals for responses to GABA alone or GABA+steroid. The ratios were computed as (GABA+steroid)/GABA, and the geometric means were computed for the indicated number of ratios. The * indicates statistical significance at the level of P<0.05. […] The single-channel activity was determined from Po using all-points histograms such as those shown in FIGS. 4B and 4D, as described in METHODS. The GABA concentration was […] for the first two columns and 1 mM for the last column.

The nature of assay [2]: Treatment and prevention of hypertension in borderline hypertensive patients (Example 2). Conditions: daily high physiological dosage, after one year, versus placebo; expected. It counts as in vivo, human. The text has this:
An experiment is run with study group of patients who are borderline hypertensive. Half of the group is given daily a high physiological dosage of allepregnanolone. The remaining patients are placed on placebo.

In assay [3] the test system is Posterior Pituitary GABAA Receptor. As to the kind of experiment: Whole-terminal patch clamp recording of GABA responses in posterior pituitary nerve terminals. The conditions noted are these: for Effect on GABA-activated Cl- current / GABAA receptor responses of nerve terminals (in words): posterior pituitary nerve terminals. In kind it is cell-based. How it is done:
as §1

The test system is the same in assay [4]. As to the kind of experiment: Desensitization of the GABAA receptor during sustained GABA application, whole-terminal recordings. It counts as cell-based. More on the design: Time constant of desensitization, GABA with steroid: dose or concentration left out as unconfirmed. The conditions noted are these: for Desensitization Time-Constant Ratio: (GABA+steroid)/GABA, geometric mean, allopregnanolone 100 nM, estradiol-17β 100 nM; for Time constant of desensitization, GABA with steroid: sustained application of GABA in the presence of steroid, same terminals as controls.
Text: FIGS. 3A and 3B are whole terminal recordings showing the GABA desensitizing effect of certain neuroactive steroids on the GABAA receptor. […] 3B illustrates the effect of allopregnanolone.
Sustained application of GABA desensitized the receptor with a time constant of 9.5±0.5 sec (n=3). […] Similar results were obtained with allopregnanolone; the average time constant for desensitization was 9.1±1.8 sec with GABA alone and 10.2±1.7 sec (n=3) with GABA and allopregnanolone.
as §1

Assay [5] in a line: Oral contraceptive containing neuroactive steroid in premenopausal women (Example 3). It counts as in vivo, human. The conditions noted are these: progesterone containing oral contraceptive with neuroactive steroid, two years; expected. The text has this:
An experiment is run with a study group of premenopausal women. Half of the group is placed on a progesterone containing oral contraceptive which also contains a neuroactive steroid such as allepregnanolone. The other half of the study group is given the same oral contraceptive but without neuroactive steroid. The study is run for two years and the group is regularly evaluated for its cardiovascular status.

“And” between values parts separate entries of the source, which are not always exact repeats. Equal entries are not always repeated. “Also recorded” adds a separate entry of the source.

`CC(=O)[C@H]1CC[C@H]2[C@@H]3CC[C@H]4C[C@H](O)CC[C@]4(C)[C@H]3CC[C@]12C` [Allopregnanolone, 3α-hydroxy-5α-pregnan-20-one]: the “Effect on GABA-activated single-channel activity (in words)” value in assay [1] is “more channel activity than GABA alone; also recorded: clearly increased”. The “Blood pressure relative to control” value in assay [2] is reported as “significantly lower blood pressure relative to control”. The “Effect on GABA-activated Cl- current / GABAA receptor responses of nerve terminals (in words)” value in assay [3] is “potentiated; also recorded: strongly enhanced”. Also, in assay [4], the “Desensitization Time-Constant Ratio” value worked out at 1.14 and the “Time constant of desensitization, GABA with steroid” value (“Time constant … with steroid” below) stood at 10.2 ± 1.7 s. In addition, the “Cardiovascular status compared to control” value in assay [5] was “significantly better cardiovascular status compared to control”.

As for `CC(=O)[C@H]1CC[C@H]2[C@@H]3CC[C@H]4C[C@H](O)CC[C@]4(C)[C@H]3C(=O)C[C@]12C` [Alphaxalone, alphaxalone], the “Time constant … with steroid” value in assay [4] was determined as 8.9 ± 0.5 s.

`C[C@]12CC[C@@H]3c4ccc(O)cc4CC[C@H]3[C@@H]1CC[C@@H]2O` [Estradiol-17β]: in assay [1], the “Effect on GABA-activated single-channel activity (in words)” value is “went down slightly”. The “GABA responses as % of controls” value in assay [3] (estradiol-17β 100 nM, n=6) is 78%. Moreover, the “Effect on GABA-activated Cl- current / GABAA receptor responses of nerve terminals (in words)” value in assay [3] was “weak inhibitory effect”. In assay [4], the “Desensitization Time-Constant Ratio” value is on record as 0.90 and the “Time constant … with steroid” value stood at 7.9 ± 1.9 s. Also, the “Effect on rate of desensitization (in words)” value in assay [4] (sustained GABA application) is on record as “failed to alter the rate of desensitization”.

In the case of `NCCCC(=O)O` [GABA], the “Time constant of desensitization, GABA alone” value in assay [4] (sustained application of GABA alone (controls of the alphaxalone, allopregnanolone and estradiol-17β experiments, in this order)) was 9.5 ± 0.5 s and 9.1 ± 1.8 s and 9.2 ± 0.2 s.
